Source: the NIST ThermoML archive (doi:10.1021/je100078w)

Tests used:
[1] = Liquid
[2] = wn = mass fraction of the nth substance listed; conditions: 101 kPa, Liquid

C[NH+](CCO)CCO.F[B-](F)(F)F
[1], 101.33 kPa
Conditions | mass density [kg/m3] | viscosity [mPa·s]
303.15 K | 1425.56 | 208.8
313.15 K | 1418.1 | 117.7
323.15 K | 1410.63 | 71.79
333.15 K | 1403.2 | 46.85
343.15 K | 1395.85 | 32.35

C[NH+](CCO)CCO.F[B-](F)(F)F + O
[2]
Conditions | mass density, 303.15 K [kg/m3] | mass density, 313.15 K [kg/m3] | mass density, 323.15 K [kg/m3] | mass density, 333.15 K [kg/m3] | mass density, 343.15 K [kg/m3] | viscosity, 303.15 K [mPa·s] | viscosity, 313.15 K [mPa·s] | viscosity, 323.15 K [mPa·s] | viscosity, 333.15 K [mPa·s] | viscosity, 343.15 K [mPa·s]
w1 = 0.3001 | 1084.71 | 1075.11 | 1067.02 | 1058.01 | 1047.87 | – | – | – | – | –
w2 = 0.3001 | – | – | – | – | – | 1.245 | 1.041 | 0.8831 | 0.7874 | 0.7196

CCCCn1cc[n+](C)c1.F[B-](F)(F)F [1-butyl-3-methylimidazolium tetrafluoroborate]
[1], 101.33 kPa
Conditions | mass density [kg/m3] | viscosity [mPa·s]
303.15 K | 1195.7 | 68.9
313.15 K | 1188.62 | 44.73
323.15 K | 1181.59 | 30.81
333.15 K | 1174.6 | 22.28
343.15 K | 1167.67 | 16.75

CCCCn1cc[n+](C)c1.F[B-](F)(F)F [1-butyl-3-methylimidazolium tetrafluoroborate] + O
[2], w1 = 0.2998
Conditions | mass density [kg/m3] | viscosity [mPa·s]
303.15 K | 1045.35 | 1.292
313.15 K | 1039.84 | 1.046
323.15 K | 1033.76 | 0.8731
333.15 K | 1027.74 | 0.7473
343.15 K | 1021.18 | 0.6549

CCCCn1cc[n+](C)c1.F[B-](F)(F)F [1-butyl-3-methylimidazolium tetrafluoroborate] + OCCN(CCO)CCO
[2], w2 = 0
Conditions | mass density [kg/m3] | viscosity [mPa·s]
303.15 K | 1195.7 | 68.9
313.15 K | 1188.62 | 44.73
323.15 K | 1181.59 | 30.81
333.15 K | 1174.6 | 22.28
343.15 K | 1167.67 | 16.75

CN(CCO)CCO.CN(CCO)CCO.O=S(=O)(O)O [2,2'-(methylimino)diethanol sulfate (2:1)]
[1], 101.33 kPa
Conditions | mass density [kg/m3] | viscosity [mPa·s]
303.15 K | 1282.49 | –
313.15 K | 1276.83 | 1858
323.15 K | 1271.25 | 990.8
333.15 K | 1265.72 | 571.2
343.15 K | 1260.24 | 350.4

CN(CCO)CCO.CN(CCO)CCO.O=S(=O)(O)O [2,2'-(methylimino)diethanol sulfate (2:1)] + O
[2]
Conditions | mass density, 303.15 K [kg/m3] | mass density, 313.15 K [kg/m3] | mass density, 323.15 K [kg/m3] | mass density, 333.15 K [kg/m3] | mass density, 343.15 K [kg/m3] | viscosity, 303.15 K [mPa·s] | viscosity, 313.15 K [mPa·s] | viscosity, 323.15 K [mPa·s] | viscosity, 333.15 K [mPa·s] | viscosity, 343.15 K [mPa·s]
w1 = 0.2999 | 1091.95 | 1087.46 | 1082.24 | 1075.89 | 1068.32 | – | – | – | – | –
w1 = 0.3001 | – | – | – | – | – | 1.795 | 1.446 | 1.196 | 1.012 | 0.872

NCCO [2-aminoethan-1-ol] + O
[2], w1 = 0.3002
Conditions | mass density [kg/m3] | viscosity [mPa·s]
303.15 K | 1013.02 | 2.093
313.15 K | 1007.98 | 1.603
323.15 K | 1003.42 | 1.271
333.15 K | 997.157 | 1.037
343.15 K | 989.924 | 0.8681

C[NH+](CCO)CCO.[Cl-] [2-hydroxy-N-(2-hydroxyethyl)-N-methylethanaminium chloride]
[1], 101.33 kPa
Conditions | mass density [kg/m3] | viscosity [mPa·s]
303.15 K | 1180.42 | 512.1
313.15 K | 1174.71 | 278.2
323.15 K | 1169.24 | 164.2
333.15 K | 1163.75 | 104.1
343.15 K | 1158.29 | 70.45

C[NH+](CCO)CCO.[Cl-] [2-hydroxy-N-(2-hydroxyethyl)-N-methylethanaminium chloride] + O
[2]
Conditions | mass density, 303.15 K [kg/m3] | mass density, 313.15 K [kg/m3] | mass density, 323.15 K [kg/m3] | mass density, 333.15 K [kg/m3] | mass density, 343.15 K [kg/m3] | viscosity, 303.15 K [mPa·s] | viscosity, 313.15 K [mPa·s] | viscosity, 323.15 K [mPa·s] | viscosity, 333.15 K [mPa·s] | viscosity, 343.15 K [mPa·s]
w1 = 0.3001 | – | – | – | – | – | 1.539 | 1.265 | 1.067 | 0.8862 | 0.7911
w1 = 0.3006 | 1058.44 | 1053.89 | 1049.23 | 1043.31 | 1037.05 | – | – | – | – | –

C[NH+](CCO)CCO.C[NH+](CCO)CCO.C[NH+](CCO)CCO.O=P([O-])([O-])[O-] [2-hydroxy-N-(2-hydroxyethyl)-N-methylethanaminium phosphate]
[1], 101.33 kPa
Conditions | mass density [kg/m3] | viscosity [mPa·s]
303.15 K | 1215.95 | –
313.15 K | 1208.49 | 2483
323.15 K | 1200.88 | 1426
333.15 K | 1193.23 | 822.5
343.15 K | 1185.52 | 385.4

C[NH+](CCO)CCO.C[NH+](CCO)CCO.C[NH+](CCO)CCO.O=P([O-])([O-])[O-] [2-hydroxy-N-(2-hydroxyethyl)-N-methylethanaminium phosphate] + O
[2]
Conditions | mass density, 303.15 K [kg/m3] | mass density, 313.15 K [kg/m3] | mass density, 323.15 K [kg/m3] | mass density, 333.15 K [kg/m3] | mass density, 343.15 K [kg/m3] | viscosity, 303.15 K [mPa·s] | viscosity, 313.15 K [mPa·s] | viscosity, 323.15 K [mPa·s] | viscosity, 333.15 K [mPa·s] | viscosity, 343.15 K [mPa·s]
w1 = 0.3001 | – | – | – | – | – | 2.63 | 2.125 | 1.805 | 1.594 | 1.455
w1 = 0.3007 | 1075.32 | 1070.31 | 1063.44 | 1055.39 | 1045.38 | – | – | – | – | –

F[B-](F)(F)F.[NH3+]CCO [2-hydroxyethanaminium tetrafluoroborate]
[1], 101.33 kPa
Conditions | mass density [kg/m3]
303.15 K | 1490.57
313.15 K | 1482.62
323.15 K | 1474.94
333.15 K | 1467.85
343.15 K | 1464.59

[1], 101.33 kPa, Concentric cylinders viscometry
Conditions | viscosity [mPa·s]
303.15 K | 59.39
313.15 K | 48.68
333.15 K | 32.85
343.15 K | 27.84

F[B-](F)(F)F.[NH3+]CCO [2-hydroxyethanaminium tetrafluoroborate] + O
[2], w1 = 0.3004
Conditions | mass density [kg/m3] | viscosity [mPa·s]
303.15 K | 1116.48 | 1.007
313.15 K | 1110.85 | 0.8573
323.15 K | 1104.95 | 0.7412
333.15 K | 1098.99 | 0.6743
343.15 K | 1093.41 | 0.5896

CN(CCO)CCO [N-methyldiethanolamine]
[1], 101.33 kPa
Conditions | mass density [kg/m3]
303.15 K | 1033.74
313.15 K | 1026.72
323.15 K | 1019.48
333.15 K | 1012.32
343.15 K | 1002.25

[1], 101.33 kPa, Concentric cylinders viscometry
Conditions | viscosity [mPa·s]
303.15 K | 57.69
313.15 K | 34.79
323.15 K | 21.88
333.15 K | 14.6
343.15 K | 9.855

CN(CCO)CCO [N-methyldiethanolamine] + O
[2], w1 = 0.3002
Conditions | mass density [kg/m3] | viscosity [mPa·s]
303.15 K | 1022.9 | 2.612
313.15 K | 1018 | 1.937
323.15 K | 1012.96 | 1.505
333.15 K | 1006.92 | 1.207
343.15 K | – | 0.8944

OCCN(CCO)CCO [triethanolamine]
[1], 101 kPa
Conditions | mass density [kg/m3] | viscosity [mPa·s]
303.15 K | 1114.43 | 398.2
313.15 K | 1108.34 | 195.9
323.15 K | 1102.23 | 103.6
333.15 K | 1095.96 | 60.81
343.15 K | 1089.6 | 37.94

OCCN(CCO)CCO [triethanolamine] + CCCCn1cc[n+](C)c1.F[B-](F)(F)F
[2]
Conditions | mass density, 303.15 K [kg/m3] | mass density, 313.15 K [kg/m3] | mass density, 323.15 K [kg/m3] | mass density, 333.15 K [kg/m3] | mass density, 343.15 K [kg/m3] | viscosity, 303.15 K [mPa·s] | viscosity, 313.15 K [mPa·s] | viscosity, 323.15 K [mPa·s] | viscosity, 333.15 K [mPa·s] | viscosity, 343.15 K [mPa·s]
w1 = 0.1998 | 1175.8 | 1168.63 | 1161.5 | 1154.44 | 1147.42 | 57.94 | 35.89 | 24.02 | 17.13 | 12.82
w1 = 0.3987 | 1161.1 | 1154.41 | 1146.93 | 1139.88 | 1132.87 | 69.54 | 39.71 | 25.08 | 17.08 | 12.32
w1 = 0.5005 | 1150.08 | 1142.89 | 1135.48 | 1128.12 | 1120.99 | 86.62 | 47.22 | 28.82 | 19.11 | 13.48
w1 = 0.6 | 1146.42 | 1139.61 | 1132.76 | 1125.89 | 1119 | 116.5 | 60.67 | 36.1 | 23.35 | 16.14
w1 = 0.7999 | 1129.56 | 1123.21 | 1116.73 | 1110.16 | 1103.54 | 186.3 | 99.43 | 54.02 | 33.63 | 22.33
w1 = 1 | 1114.43 | 1108.34 | 1102.23 | 1095.96 | 1089.6 | 398.2 | 195.9 | 103.6 | 60.81 | 37.94

OCCN(CCO)CCO [triethanolamine] + O
[2], w1 = 0.3
Conditions | mass density [kg/m3] | viscosity [mPa·s]
303.15 K | 1042.75 | 2.354
313.15 K | 1037.93 | 1.799
323.15 K | 1032.21 | 1.425
333.15 K | 1023.74 | 1.172
343.15 K | 1011.68 | 0.9591
